# In patent publication US9351978B2, “Neurogenesis screening method and uses thereof” (Mead Johnson Nutrition Company, priority 2012, dated 2016):
# Experiments:
# hNSCs = test: neurogenesis of hNSCs, morphological changes under inverted fluorescent microscopy; type: cell-based, human; conditions: 72 hours
# Description: Briefly, hNSCs were purchased from Millipore, Bellerica, Mass., U.S.A., with genetic modification to constitutively express green fluorescent protein (“GFP”). The hNSCs were cultured on laminin coated plates as recommended by the manufacturer. Both laminin and DEME/F12 were obtained from Millipore. Laminin was diluted with DMEM/F12 to 20 μg/mL. 10 ml of diluted laminin solution was added to 10 cm tissue culture dish. Then the culture dish was incubated in a 37° C., 5% CO2 incubator overnight. Just before use, the laminin solution was aspirated and rinsed once with sterile DPBS solution. hNSCs were cultured in the ReNcell NSC maintenance medium (Millipore) supplied with 20 ng/mL bFGF and 20 ng/mL EGF in a 37° C., 5% CO2 incubator. Medium was exchanged with fresh medium containing bFGF and EGF every other day thereafter. The cells reached 80% confluence 2 to 3 days after this step.
# After hNSCs reach 80% confluence, hNSCs were ready for the differentiation experiment. Before seeding, a 96-well plate was freshly coated with 20 μg/mL laminin solution followed by a brief DPBS rinse as described above. Culture medium was removed carefully and hNSCs were dissociated within 3 ml Accutase (Millipore) in a 37° C., 5% CO2 incubator for 3 minutes. Then 5 ml of ReNcell NSC maintenance medium (Millipore) supplied with 20 ng/mL bFGF and 20 ng/mL EGF were added. The cell suspension was then transferred a sterile 15 ml conical tube and the cells were pelleted by the centrifugation at 300×g for 5 minutes. Supernatant was removed. 2 ml medium was then applied to the tube and hNSCs was resuspended thoroughly. The hNSCs were seeded on a 96-well plate at a density of 1×10^4 cell/ml (1000 cells/well, 100 μl/well).
# After attaching to the culture surface, the culture medium was switched to serum-free differentiation medium in the presence of cholesterol, or DHA, or no treatment. […]
# hADSCs = test: neurogenesis of hADSCs, neuronal morphology under phase contrast microscopy; type: cell-based, human
# Description: hADSCs were purchased from Invitrogen, also known as Life Technologies, of Carlsbad, Calif., U.S.A., and were cultured as near confluent monolayers in 100 mm culture plates within a maintenance media consisting of Complete MesenPro RS medium with growth supplement and L-glutamine obtained from Invitrogen®. The process of culturing, passage, and seeding the hADSCs is described below.
# The subculture of hADSCs was performed when cell culture reached confluence. To passage hADSCs, the following procedure is used: i) aspirate the Complete MesenPRO RS medium from the cells; ii) rinse the surface area of the cell layer with Dulbecco's phosphate buffered saline (DBPS) buffer by adding the DPBS to the side of the vessel opposite the attached cell layer and rocking the vessel back and forth several times; iii) remove the DPBS by aspiration and discard; iv) detach the cells by adding a sufficient volume of pre-warmed trypsin-EDTA solution without phenol red to cover the cell layer; v) incubate at 37° C. for approximately 7 minutes; vi) observe the cells under a microscope to determine if additional incubation is needed; vii) add 3 mL of the maintenance media to the plate, mix the cell suspension, add the suspension to a 15 mL centrifuge tube and centrifuge at 210 g for 5 minutes; viii) determine the total number of cells and percent viability using a hemacytometer; ix) add Complete MesenPRO RS medium to each vessel so that the final culture volume is 0.2 mL-0.5 mL per cm^2; x) seed the cells by adding the appropriate volume of cells to each vessel and incubate at 37° C., 5% CO2 and 90% humidity; and xi) three or four days after seeding, completely remove the medium and replace with an equal volume of Complete MesenPRO RS medium.
# Before seeding the passaged hADSCs on fresh culture plates, the surfaces of the culture ware are washed with sterile DPBS solution three times, followed by multiple rinses with sterile water. The first layer of coating is poly-L-ornithine. […]
smiles,measurement,setting,value
CC(C)CCC[C@@H](C)[C@H]1CC[C@H]2[C@@H]3CC=C4C[C@@H](O)CC[C@]4(C)[C@H]3CC[C@]12C [cholesterol],morphology of hNSCs observed,hNSCs; 25 μM,"shrinking cellular bodies, projecting neurities and were developing dendrites"
same,neurogenesis of hNSCs compared to no treatment,"hNSCs; 25 μM, serum-free differentiation medium",dramatically promoted neurogenesis
same,length of neurite outgrowth,hNSCs; cholesterol 25 μM compared with DHA at 20 μM,comparable to DHA
same,effect to enhance neurogenesis (neuronal morphology displayed by the hADSCs),"hADSCs; 5 μM, among the concentrations tested, phase contrast microscopy at 24, 48 and 96 hours, FIG. 2B",strongest effect to enhance neurogenesis
same,neurogenesis compared to the negative control,hADSCs; addition of cholesterol vs no treatment,promoted neurogenesis when compared to the negative control
same,morphology of treated hADSCs (outgrowth),"hADSCs; hADSCs treated with cholesterol, FIG. 2B",long outgrowth with some branching
